This note sets out measurements from ChEMBL document CHEMBL1201862, “PubChem BioAssay data set” (2004).

The target of test [1] is E3 ubiquitin-protein ligase Mdm2 (Homo sapiens, UniProt Q00987). The test is described as follows: enhancers of MDM2-luciferase reporter signal, concentration-effect titration, project on inhibitors of MDM2 ubiquitin ligase, cellular assay, luminescent readout, 384-well plate format (AID 1394).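 Also: MDM2 E3 inhibitors raise luminescence so EC50 is for signal enhancement.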 It is filed as functional.
Sequence of E3 ubiquitin-protein ligase Mdm2 (Q00987 whole entry): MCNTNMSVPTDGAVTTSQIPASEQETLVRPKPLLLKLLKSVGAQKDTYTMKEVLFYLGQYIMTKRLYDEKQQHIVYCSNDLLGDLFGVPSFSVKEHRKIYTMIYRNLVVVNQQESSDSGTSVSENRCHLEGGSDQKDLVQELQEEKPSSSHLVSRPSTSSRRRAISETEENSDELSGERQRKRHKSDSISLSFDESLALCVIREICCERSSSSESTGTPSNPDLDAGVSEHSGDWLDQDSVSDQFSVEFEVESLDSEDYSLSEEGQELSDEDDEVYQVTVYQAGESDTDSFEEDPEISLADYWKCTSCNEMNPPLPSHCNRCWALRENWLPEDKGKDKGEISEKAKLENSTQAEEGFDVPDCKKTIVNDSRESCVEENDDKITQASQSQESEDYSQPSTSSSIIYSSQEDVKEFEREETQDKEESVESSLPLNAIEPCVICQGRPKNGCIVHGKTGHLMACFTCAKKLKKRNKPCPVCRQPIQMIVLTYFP
For test [2], the target named is T1, Heat shock factor protein 1 (Mus musculus, UniProt P38532).
T1 sequence (P38532 whole entry): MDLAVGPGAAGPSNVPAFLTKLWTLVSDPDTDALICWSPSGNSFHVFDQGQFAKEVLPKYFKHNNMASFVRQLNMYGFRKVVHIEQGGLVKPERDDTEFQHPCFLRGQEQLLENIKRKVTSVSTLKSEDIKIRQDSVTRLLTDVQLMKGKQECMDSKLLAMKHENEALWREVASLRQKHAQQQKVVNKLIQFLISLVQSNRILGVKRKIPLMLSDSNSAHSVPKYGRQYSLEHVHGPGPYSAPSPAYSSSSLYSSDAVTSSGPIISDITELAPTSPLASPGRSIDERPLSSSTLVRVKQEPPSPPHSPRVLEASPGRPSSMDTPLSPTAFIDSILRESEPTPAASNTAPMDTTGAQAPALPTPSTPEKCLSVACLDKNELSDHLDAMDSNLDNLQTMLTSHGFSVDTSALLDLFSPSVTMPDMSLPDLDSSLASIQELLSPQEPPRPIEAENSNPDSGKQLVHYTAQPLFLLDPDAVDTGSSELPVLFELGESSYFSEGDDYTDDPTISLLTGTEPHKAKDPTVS
Briefly: inhibition of MG132-induced HSE-luciferase signal, confirmation, cell-based, NIH3T3, luminescence, dose retest (AID 2382).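 Also: NIH3T3 fibroblasts with HSF1-driven luciferase reporter stressed by proteasome inhibitor MG132; luminescence from HSF1-driven luciferase expression after 8 hours of MG132 stress.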 It is filed as functional.

A further test has as its target Paired box protein Pax-8 (Homo sapiens, UniProt Q06710). Briefly: inhibitors of PAX8-driven TPO luciferase reporter, dose response, RMG-I cells, cherry-pick (AID 687027).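 Also: luciferase reporter driven by Pax8 target thyroperoxidase promoter measured by SteadyGlo luminescence.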 Format: functional, cell-based.
The next test relates to Vero. The test is described as follows: cells. Conditions: Chlorocebus sabaeus. Format: functional.
In test [3] the target is T2, Tyrosine-protein phosphatase non-receptor type 7 (Homo sapiens, UniProt P35236).
T2 sequence (P35236 whole entry): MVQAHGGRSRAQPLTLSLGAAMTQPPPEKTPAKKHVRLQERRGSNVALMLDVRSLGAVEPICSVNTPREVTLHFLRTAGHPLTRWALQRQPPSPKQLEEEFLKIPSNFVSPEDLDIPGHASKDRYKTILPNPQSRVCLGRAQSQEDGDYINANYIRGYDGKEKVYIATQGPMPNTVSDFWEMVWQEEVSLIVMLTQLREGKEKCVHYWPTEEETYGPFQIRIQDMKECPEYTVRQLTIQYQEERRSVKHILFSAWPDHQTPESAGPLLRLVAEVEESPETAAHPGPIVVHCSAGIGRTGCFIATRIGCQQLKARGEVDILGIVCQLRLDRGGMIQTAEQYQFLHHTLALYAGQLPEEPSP
Briefly: inhibitors of human HePTP phosphatase, […], biochemical, absorbance, leukemia target (AID 521). Format: functional.

For test [4], the target named is Bifunctional protein GlmU (Mycobacterium tuberculosis, UniProt P9WMN3). The test is described as follows: Inhibitors of Mycobacterial Glucosamine-1-phosphate acetyl transferase (GlmU). Secondary screen. Details: species or system Mycobacterium tuberculosis H37Rv.
Sequence of Bifunctional protein GlmU (P9WMN3 whole entry): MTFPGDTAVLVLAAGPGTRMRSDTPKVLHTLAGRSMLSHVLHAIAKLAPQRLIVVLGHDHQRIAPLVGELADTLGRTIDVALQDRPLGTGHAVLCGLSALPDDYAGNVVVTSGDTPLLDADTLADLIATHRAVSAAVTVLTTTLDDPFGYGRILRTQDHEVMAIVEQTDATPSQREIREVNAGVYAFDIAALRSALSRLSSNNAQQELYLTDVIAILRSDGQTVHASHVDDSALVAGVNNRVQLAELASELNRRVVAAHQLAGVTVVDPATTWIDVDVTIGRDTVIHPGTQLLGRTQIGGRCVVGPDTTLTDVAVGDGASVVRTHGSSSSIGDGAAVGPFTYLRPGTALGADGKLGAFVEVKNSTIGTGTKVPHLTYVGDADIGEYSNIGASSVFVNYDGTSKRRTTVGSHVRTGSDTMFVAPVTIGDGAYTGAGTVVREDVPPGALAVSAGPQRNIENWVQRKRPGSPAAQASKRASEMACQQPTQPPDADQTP
In test [5] the target is T3, Histone-lysine N-methyltransferase NSD2 (Homo sapiens, UniProt O96028).
T3 sequence (O96028 whole entry): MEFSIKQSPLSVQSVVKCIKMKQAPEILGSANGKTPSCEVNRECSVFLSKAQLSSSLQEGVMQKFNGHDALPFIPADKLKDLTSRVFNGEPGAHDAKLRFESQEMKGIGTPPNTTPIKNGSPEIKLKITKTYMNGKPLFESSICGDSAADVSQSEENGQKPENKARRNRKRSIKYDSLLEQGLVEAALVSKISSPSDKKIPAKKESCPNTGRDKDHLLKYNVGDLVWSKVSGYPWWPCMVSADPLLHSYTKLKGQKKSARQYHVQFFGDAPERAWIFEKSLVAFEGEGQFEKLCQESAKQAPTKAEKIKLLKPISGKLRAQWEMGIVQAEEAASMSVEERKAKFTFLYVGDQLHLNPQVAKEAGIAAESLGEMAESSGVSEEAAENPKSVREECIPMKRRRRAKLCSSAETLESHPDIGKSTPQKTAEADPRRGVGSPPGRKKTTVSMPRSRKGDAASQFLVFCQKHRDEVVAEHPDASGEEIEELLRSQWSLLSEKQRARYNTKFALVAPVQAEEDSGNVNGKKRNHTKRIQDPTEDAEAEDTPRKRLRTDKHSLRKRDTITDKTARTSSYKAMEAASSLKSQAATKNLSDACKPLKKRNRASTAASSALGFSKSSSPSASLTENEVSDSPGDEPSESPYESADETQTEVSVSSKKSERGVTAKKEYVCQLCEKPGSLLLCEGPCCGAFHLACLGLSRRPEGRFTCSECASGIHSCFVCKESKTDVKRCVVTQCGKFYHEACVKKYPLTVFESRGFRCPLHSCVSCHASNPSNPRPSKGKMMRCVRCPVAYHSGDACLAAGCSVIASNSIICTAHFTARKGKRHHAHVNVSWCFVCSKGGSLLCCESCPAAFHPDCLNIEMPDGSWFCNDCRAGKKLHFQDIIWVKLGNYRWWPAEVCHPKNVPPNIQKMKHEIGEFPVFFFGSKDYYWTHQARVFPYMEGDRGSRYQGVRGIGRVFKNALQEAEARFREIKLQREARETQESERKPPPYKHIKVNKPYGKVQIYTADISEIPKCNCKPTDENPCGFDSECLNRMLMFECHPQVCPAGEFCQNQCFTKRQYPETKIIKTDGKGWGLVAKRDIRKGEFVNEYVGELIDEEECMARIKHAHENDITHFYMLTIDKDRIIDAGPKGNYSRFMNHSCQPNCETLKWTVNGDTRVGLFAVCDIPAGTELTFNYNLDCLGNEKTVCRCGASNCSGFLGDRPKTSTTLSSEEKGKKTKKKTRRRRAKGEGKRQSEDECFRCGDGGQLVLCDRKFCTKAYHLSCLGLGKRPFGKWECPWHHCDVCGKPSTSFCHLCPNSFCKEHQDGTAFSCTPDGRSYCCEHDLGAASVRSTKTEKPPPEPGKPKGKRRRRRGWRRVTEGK
Format: biochemical.

The target in a further test is T4, Aminopeptidase N (Plasmodium falciparum FcB1/Columbia, UniProt O96935).
T4 sequence (O96935 whole entry): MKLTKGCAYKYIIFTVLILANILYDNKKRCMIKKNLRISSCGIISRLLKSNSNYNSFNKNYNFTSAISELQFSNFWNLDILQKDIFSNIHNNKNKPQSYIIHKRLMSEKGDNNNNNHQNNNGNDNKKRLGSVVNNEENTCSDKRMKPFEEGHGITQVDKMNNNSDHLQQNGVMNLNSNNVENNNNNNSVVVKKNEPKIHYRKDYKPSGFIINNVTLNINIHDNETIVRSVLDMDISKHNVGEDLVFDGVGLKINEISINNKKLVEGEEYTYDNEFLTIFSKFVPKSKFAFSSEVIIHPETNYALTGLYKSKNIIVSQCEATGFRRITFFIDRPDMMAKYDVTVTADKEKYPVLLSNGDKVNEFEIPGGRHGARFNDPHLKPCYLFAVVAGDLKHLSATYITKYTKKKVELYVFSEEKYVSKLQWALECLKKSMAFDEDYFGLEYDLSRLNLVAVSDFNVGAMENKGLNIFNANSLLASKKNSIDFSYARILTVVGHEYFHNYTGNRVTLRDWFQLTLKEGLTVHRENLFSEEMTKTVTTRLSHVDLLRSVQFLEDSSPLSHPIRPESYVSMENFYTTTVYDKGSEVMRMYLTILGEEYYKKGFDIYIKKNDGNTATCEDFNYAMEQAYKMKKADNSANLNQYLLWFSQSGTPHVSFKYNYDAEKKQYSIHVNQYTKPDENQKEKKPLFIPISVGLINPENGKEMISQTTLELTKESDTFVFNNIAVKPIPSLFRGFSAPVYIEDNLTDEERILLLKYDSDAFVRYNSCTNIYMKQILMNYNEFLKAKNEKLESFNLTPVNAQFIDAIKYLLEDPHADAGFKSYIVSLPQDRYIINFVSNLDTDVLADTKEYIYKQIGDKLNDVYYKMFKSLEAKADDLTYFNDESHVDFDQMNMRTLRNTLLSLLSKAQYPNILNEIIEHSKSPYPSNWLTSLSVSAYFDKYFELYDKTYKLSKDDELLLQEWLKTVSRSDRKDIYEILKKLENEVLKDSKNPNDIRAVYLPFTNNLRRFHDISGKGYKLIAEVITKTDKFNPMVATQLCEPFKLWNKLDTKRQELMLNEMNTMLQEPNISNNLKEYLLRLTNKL
Briefly: P. falciparum M1AAP inhibitors, biochemical, fluorogenic H-Leu-NHMec substrate, 1536-well (AID 1445). Details: species or system Plasmodium falciparum 3D7, 3D7.

Test [6] concerns the target E3 ubiquitin-protein ligase XIAP (Homo sapiens, UniProt P98170). The test is described as follows: Counter Screen using XIAP-Bir3 for Chemical Antagonists of Bir1/2 domains of IAP-family anti-apoptotic proteins. [Related pubchem assays (depositor defined):AID1018, AID1449, AID1514, AID1638, AID1749, AID1750, AID488957, AID488963].
Another test concerns the target Keap1/Nrf2 (Homo sapiens, UniProt Q14145). The test is described as follows: Keap1-Nrf2 protein-protein interaction inhibitors, dose response, biochemical, fluorescence polarization, cherry-picked samples (AID 588683).
Another test concerns the target Genome polyprotein (dengue virus type 2, UniProt P29990). Briefly: Dengue-2 NS5 methyltransferase inhibitors, primary screen, biochemical, confirmation dose response (AID 588689). Format: functional.
In the next test the target is Large T antigen (Simian virus 40, UniProt P03070). Format: functional, Betapolyomavirus macacae.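 Also: Confirmatory-stage PubChem screen for compounds that inhibit SV40 T antigen.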
Sequence of Large T antigen (P03070 whole entry): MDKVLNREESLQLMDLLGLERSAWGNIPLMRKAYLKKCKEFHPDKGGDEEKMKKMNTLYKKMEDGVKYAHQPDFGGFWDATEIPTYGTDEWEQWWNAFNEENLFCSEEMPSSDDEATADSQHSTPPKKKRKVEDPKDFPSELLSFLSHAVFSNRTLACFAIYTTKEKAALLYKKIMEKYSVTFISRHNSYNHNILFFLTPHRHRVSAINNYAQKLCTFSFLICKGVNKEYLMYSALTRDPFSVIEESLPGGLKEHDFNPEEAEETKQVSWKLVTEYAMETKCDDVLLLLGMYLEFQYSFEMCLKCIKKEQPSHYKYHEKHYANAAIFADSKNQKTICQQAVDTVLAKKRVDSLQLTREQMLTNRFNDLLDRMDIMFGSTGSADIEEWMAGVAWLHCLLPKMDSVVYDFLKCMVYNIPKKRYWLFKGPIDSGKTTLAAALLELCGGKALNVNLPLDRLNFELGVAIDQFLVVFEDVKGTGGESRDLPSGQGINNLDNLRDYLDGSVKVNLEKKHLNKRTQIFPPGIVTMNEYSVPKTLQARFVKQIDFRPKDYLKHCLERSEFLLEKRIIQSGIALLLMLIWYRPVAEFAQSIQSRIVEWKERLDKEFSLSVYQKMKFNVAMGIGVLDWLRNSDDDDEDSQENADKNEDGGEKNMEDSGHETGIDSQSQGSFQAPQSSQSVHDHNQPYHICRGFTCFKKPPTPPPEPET

The source made the active and inactive calls. Bounds are passed on as bounds.

Sequence of Paired box protein Pax-8 (Q06710 whole entry): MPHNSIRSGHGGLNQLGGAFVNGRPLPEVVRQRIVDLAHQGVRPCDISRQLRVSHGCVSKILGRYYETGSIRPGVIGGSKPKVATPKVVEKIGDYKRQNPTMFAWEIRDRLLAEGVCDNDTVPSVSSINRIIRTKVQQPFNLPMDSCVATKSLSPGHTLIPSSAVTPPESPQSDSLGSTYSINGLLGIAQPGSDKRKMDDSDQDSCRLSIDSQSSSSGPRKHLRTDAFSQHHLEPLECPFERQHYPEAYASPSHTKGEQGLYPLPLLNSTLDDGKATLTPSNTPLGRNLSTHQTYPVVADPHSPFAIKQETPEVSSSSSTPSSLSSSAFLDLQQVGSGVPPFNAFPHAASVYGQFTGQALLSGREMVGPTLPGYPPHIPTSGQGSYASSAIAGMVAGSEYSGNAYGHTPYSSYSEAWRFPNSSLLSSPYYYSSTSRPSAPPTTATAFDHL
Sequence of Genome polyprotein (P29990 2492-3391 limits assumed): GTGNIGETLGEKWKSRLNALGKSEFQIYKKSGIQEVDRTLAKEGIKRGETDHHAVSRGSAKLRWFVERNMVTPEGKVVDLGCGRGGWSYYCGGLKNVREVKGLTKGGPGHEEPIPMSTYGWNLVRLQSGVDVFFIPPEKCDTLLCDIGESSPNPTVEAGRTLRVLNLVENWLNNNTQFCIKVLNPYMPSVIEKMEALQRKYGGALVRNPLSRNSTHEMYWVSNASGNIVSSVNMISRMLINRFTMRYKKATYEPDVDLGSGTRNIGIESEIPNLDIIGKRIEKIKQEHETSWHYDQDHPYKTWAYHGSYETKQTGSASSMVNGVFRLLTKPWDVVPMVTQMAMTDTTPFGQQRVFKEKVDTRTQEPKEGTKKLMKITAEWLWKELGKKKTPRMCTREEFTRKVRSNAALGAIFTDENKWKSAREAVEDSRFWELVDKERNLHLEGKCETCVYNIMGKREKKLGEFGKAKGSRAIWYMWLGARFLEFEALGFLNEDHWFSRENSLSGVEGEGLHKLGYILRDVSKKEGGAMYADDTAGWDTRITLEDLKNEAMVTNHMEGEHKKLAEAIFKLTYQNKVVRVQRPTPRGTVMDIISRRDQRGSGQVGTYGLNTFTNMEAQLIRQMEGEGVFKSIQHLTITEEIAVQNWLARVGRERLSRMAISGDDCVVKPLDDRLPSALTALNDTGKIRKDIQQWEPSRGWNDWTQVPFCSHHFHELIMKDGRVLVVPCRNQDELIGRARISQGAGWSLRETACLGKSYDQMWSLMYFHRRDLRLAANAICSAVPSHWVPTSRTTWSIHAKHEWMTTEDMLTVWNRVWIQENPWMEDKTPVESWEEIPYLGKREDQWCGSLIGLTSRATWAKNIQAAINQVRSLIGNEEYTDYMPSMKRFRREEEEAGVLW
Sequence of E3 ubiquitin-protein ligase XIAP (P98170 whole entry): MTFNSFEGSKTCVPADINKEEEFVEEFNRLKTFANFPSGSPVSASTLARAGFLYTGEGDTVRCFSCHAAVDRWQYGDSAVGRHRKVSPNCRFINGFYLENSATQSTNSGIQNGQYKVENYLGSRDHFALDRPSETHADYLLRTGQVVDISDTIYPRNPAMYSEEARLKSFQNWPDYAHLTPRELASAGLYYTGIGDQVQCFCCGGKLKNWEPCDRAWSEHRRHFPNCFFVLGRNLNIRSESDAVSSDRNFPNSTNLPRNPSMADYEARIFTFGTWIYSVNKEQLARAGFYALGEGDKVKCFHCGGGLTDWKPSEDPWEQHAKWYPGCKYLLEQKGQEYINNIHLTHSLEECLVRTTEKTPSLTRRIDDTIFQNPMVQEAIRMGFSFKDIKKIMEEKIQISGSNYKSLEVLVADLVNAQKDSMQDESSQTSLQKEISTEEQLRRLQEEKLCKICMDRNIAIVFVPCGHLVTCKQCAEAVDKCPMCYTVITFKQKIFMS
Sequence of Keap1/Nrf2 (Q16236 whole entry): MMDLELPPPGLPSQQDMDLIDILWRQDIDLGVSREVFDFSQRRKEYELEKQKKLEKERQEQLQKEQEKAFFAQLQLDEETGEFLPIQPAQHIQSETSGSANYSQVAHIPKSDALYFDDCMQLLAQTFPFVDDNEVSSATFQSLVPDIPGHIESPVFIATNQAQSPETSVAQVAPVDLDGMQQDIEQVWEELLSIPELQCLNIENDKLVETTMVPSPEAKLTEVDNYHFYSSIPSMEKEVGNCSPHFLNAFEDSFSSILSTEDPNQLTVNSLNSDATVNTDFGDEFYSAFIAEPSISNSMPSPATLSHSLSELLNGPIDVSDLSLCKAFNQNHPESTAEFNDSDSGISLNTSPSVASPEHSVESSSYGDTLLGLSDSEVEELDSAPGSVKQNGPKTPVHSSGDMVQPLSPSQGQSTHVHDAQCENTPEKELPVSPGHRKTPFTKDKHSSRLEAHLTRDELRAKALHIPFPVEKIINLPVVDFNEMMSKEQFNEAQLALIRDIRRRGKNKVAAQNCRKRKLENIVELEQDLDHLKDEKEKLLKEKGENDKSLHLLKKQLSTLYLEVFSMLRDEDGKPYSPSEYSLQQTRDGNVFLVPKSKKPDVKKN
Sequence of Keap1/Nrf2 (Q14145 whole entry): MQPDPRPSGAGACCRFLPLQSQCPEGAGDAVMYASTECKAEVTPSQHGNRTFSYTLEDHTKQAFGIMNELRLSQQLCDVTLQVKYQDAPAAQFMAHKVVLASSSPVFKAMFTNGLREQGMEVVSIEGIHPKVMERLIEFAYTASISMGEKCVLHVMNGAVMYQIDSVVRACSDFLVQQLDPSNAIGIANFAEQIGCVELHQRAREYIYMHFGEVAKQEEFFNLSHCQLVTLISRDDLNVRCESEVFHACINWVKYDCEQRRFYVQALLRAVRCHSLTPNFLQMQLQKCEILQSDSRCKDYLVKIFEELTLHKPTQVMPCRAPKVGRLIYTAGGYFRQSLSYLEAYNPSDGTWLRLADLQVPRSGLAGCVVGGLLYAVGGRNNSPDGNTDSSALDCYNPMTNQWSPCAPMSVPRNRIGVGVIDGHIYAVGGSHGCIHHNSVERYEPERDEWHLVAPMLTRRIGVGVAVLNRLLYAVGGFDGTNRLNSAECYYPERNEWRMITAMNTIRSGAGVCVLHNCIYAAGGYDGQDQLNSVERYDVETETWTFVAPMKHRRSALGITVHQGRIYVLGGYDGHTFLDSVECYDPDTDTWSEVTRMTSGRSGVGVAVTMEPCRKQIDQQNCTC

Regarding `COc1cc(/C=C2\COC/C(=C\c3cc(OC)c(OC)c(OC)c3)C2=O)cc(OC)c1OC`, the EC50 in test [1] was 182 µM (active); in [2] it was > 195 µM (not active). In addition, the AC50 at Paired box protein Pax-8 is 1.56 µM (active). In the test on Vero, the cytotoxic concentration (CC50) was 2.07 µM (active).

On to `O=C(NCc1cccc(C(F)(F)F)c1)C1CCCN(c2ncccn2)C1` (configuration not stated), for which, in [3], the concentration for half-maximal inhibition (IC50) is listed as > 100 µM (not active).

With `CC1=C(C#N)c2nc(N)c(C#N)c(C)c2/C1=C\c1ccc(-c2ccccc2C(=O)O)o1`, the IC50 in [4] was 70.3 µM (active); at Aminopeptidase N, 52.2 µM (active); in test [6], > 20 µM (inactive); at Genome polyprotein, 27.2 µM (active); at Large T antigen, 86.6 µM (active). Besides, the AC50 in test [5] is > 20 µM (inactive); on Keap1/Nrf2, 15.3 µM (active).
